From PubChem BioAssay AID1159558 (GlaxoSmithKline (GSK), 2015)
Activity calls are given as the source filed them.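 The calls were made as follows: active = IC50 against T. cruzi CYP51 below a set limit; inactive = the rest.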

Molecular target: Sterol 14-alpha demethylase (Trypanosoma cruzi (strain CL Brener)) (UniProt Q7Z1V1)
Assay: TcCYP51 inhibitors, dose response, mechanism study for T. cruzi antiparasitic project, biochemical, recombinant enzyme (AID 1159558);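 also: enzyme in bacterial membranes with Anopheles gambiae CYP reductase and cytochrome b5 partners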
Conditions: recombinant T. cruzi CYP51, BOMCC fluorescence

Chain of Sterol 14-alpha demethylase (Trypanosoma cruzi (strain CL Brener)) (Q7Z1V1 whole entry, looked up): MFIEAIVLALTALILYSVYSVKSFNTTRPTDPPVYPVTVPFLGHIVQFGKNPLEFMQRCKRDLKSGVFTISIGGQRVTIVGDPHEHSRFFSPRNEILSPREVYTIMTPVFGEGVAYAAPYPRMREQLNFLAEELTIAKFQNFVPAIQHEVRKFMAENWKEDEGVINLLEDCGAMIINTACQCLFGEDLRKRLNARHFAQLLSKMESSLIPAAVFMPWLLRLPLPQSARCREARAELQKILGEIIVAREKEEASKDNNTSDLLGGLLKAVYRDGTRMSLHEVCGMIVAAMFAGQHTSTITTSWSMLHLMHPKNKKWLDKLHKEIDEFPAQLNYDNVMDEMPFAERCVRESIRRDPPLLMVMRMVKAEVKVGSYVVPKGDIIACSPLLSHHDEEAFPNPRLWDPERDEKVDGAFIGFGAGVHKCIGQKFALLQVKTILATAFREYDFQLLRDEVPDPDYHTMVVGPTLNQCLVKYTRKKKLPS

CC(c1ccccn1)N(C)Cc1nc2ccccc2n1C(C)C (centres undefined)
IC50: 32 µM

COc1ccc(NS(=O)(=O)c2cc(-c3cc(C)[nH]n3)ccc2C)cc1OC
IC50: 40 µM

Cn1nc([N+](=O)[O-])nc1Oc1ccc(C(=O)c2ccccc2)cc1
IC50: > 100 µM (inactive)

Cc1ccc2c(c1)SC(C(=O)Nc1n[nH]c(-c3ccccn3)n1)C2 (centres undefined)
IC50: > 100 µM (inactive)

CC1=C(C(=O)Nc2ccc(Cl)cc2)C(c2ccncc2)n2ncc(C(=O)Nc3ccccc3)c2N1 (centres undefined)
IC50: 0.13 µM

CCCn1c(NC(=O)Cc2ccc(Cl)cc2)nc2ccccc21
IC50: > 100 µM (inactive)

Cc1cc(N2CCc3ccccc3C2)nc(Nc2ccc(S(=O)(=O)N3CCOCC3)cc2)n1
IC50: > 100 µM (inactive)

O=C(Nc1ccccc1)Nc1nc(-c2ccccn2)cs1
IC50: 32 µM

Cc1nn(-c2nc(N)nc(-c3ccccn3)n2)c(N)c1-c1ccccc1
IC50: > 100 µM (inactive)

O=C(CN(Cc1ccccn1)Cc1ccccn1)NCc1ccc2c(c1)OCO2
IC50: 100 µM

Cc1ccc(Nc2nc(-c3ccccn3)cc(N3CCCC(O)C3)n2)cc1 (centres undefined)
IC50: 25 µM

Cc1cc2cncn2c(C2CCCCN2C(=O)c2cccs2)n1 (centres undefined)
IC50: 0.1 µM

CCC(CC)C(=O)Nc1cccc(C(=O)Nc2nnc(C3CCCCC3)s2)c1
IC50: > 100 µM (inactive)

COc1ccc(C(=O)N2CCC(Nc3cccnc3)C2)c(OC)n1 (centres undefined)
IC50: 0.063 µM

COc1ccc(-c2cnc(NC(=O)c3cc(-c4ccccn4)n[nH]3)n2C)cc1
IC50: 16 µM

CCOc1ccc(OCC(=O)N2c3ccccc3CC2C(=O)NC)cc1 (centres undefined)
IC50: > 100 µM (inactive)

CC(CCc1ccccc1)NC(=O)CN(Cc1ccccn1)Cc1ccccn1 (centres undefined)
IC50: 63 µM

CC(C)(C)C(=O)NCCc1csc(-c2ccc(F)cc2)n1
IC50: 79 µM

COc1ccc(CNc2nsc3ccccc23)cc1OC
IC50: 13 µM

O=C(c1ccc(OCCCc2cnc[nH]2)cc1)C1CC1
IC50: 0.05 µM

Cc1nn2c(NCCCO)c3c(nc2c1-c1cccs1)CCC3
IC50: 25 µM

COc1ccc(NC(=O)c2ccc(NC(=O)CN(c3ccccc3C)S(C)(=O)=O)cc2)cc1
IC50: 6.3 µM

Cc1[nH]n2c(=O)c3c(nc2c1-c1ccc(F)cc1)CCCC3
IC50: > 100 µM (inactive)

COc1ccc2ncc(F)c(CCN3CC[C@@H](NC(=O)c4cc5c(s4)CCC5)[C@@H](O)C3)c2n1
IC50: 1.3 µM

COc1ccc(CNc2cc(C3CC3)nc(-c3nccn3C)n2)cc1
IC50: 5 µM

Cc1cc(-c2cccc3ccccc23)nc2nc(N)nc(N)c12
IC50: > 100 µM (inactive)

CC(C)C[C@H](NC(=O)c1csc(-c2cccs2)n1)C(=O)NC1(C#N)CC1
IC50: > 100 µM (inactive)

O=C(Nc1ncc([N+](=O)[O-])s1)C1CC1
IC50: > 100 µM (inactive)

CN(C)S(=O)(=O)c1cccc(C(=O)Nc2nc(-c3ccccn3)cs2)c1
IC50: 32 µM

CCCc1cc(C(=O)Nc2ncc(-c3cccc(Br)c3)n2C)n[nH]1
IC50: 25 µM

Cc1cc(NC(=O)c2ccc([N+](=O)[O-])s2)ccc1Br
IC50: 10 µM

Cc1nc(N2CCC(C(=O)N3CCC(O)(c4cccnc4)CC3)CC2)nc2ccc(C(C)C)cc12
IC50: 0.13 µM

Cc1ccc2nc(N(Cc3cccnc3)C(=O)CCc3ccccc3)sc2c1
IC50: 0.063 µM

N#Cc1cccc(Cc2cc(Nc3cc(C4CC4)[nH]n3)nc(N3CC[C@H]3C(N)=O)n2)c1
IC50: 50 µM

Cn1nc(-c2ccc(NC(=O)Cc3ccccc3Cl)cc2)c2c(N)ncnc21
IC50: 63 µM

Cc1c(C(C)NC(=O)Nc2cccc(Cl)c2)sc2ncnn12 (centres undefined)
IC50: 0.13 µM

CN(C)Cc1cccc(Nc2nccc(-c3ccc(NCCN)c(C#N)c3)n2)c1
IC50: 6.3 µM

COc1ccc(C2C3CCCCC3(O)CCN2CC(=O)Nc2ccc(Cl)cc2Cl)cc1 (centres undefined)
IC50: 10 µM

CCCCc1cc(Nc2cc(C3CCC3)[nH]n2)nc(N2CCC2C(N)=O)n1 (centres undefined)
IC50: > 100 µM (inactive)

CCNc1cc(-c2ccccn2)nc(Nc2ccccc2)n1
IC50: > 100 µM (inactive)

CN(C)Cc1ccc(-c2ccc(S(=O)(=O)NCC3CCCO3)c(F)c2)cc1 (centres undefined)
IC50: 40 µM

CC(CNS(=O)(=O)c1ccc(OC(F)F)cc1)c1ccc(NC(=O)c2ccncc2)cc1 (centres undefined)
IC50: 0.05 µM

O=C(NCCc1csc(-c2ccc(F)cc2)n1)c1ccco1
IC50: > 100 µM (inactive)

NCc1ccc2c(Cl)cc(Cl)c(O)c2n1
IC50: 40 µM

COc1cccc(CN(C)Cc2nc(N)c3c(C)c(C)sc3n2)c1
IC50: > 100 µM (inactive)

Cc1ccc(Nc2nc(N)nc(CNC(c3nc4ccccc4[nH]3)C(C)C)n2)cc1 (centres undefined)
IC50: 50 µM

O=C(Cn1cnc([N+](=O)[O-])n1)Nc1ccc(Cl)cc1C(=O)c1ccccc1
IC50: 10 µM

Cc1nn(C2CCS(=O)(=O)C2)c(C)c1CN(C)C(=O)C=Cc1sc2ccccc2c1Cl (centres undefined)
IC50: 0.032 µM

COc1ncc(-c2ccc3ncnc(N4CCOCC4)c3c2)cc1NS(C)(=O)=O
IC50: 40 µM

COc1ccc(-c2cc(C)no2)cc1S(=O)(=O)Nc1ccc(C)c(C)c1
IC50: 16 µM

CC1(C)CCC(=Cc2ccc(Cl)cc2)CC1(O)Cn1ccnc1 (centres undefined)
IC50: 0.05 µM

COc1cc(-c2nc(N3CCOCC3)sc2-c2ccnc(NC3CCOCC3)n2)ccc1Cl
IC50: > 100 µM (inactive)

Clc1ccc(Sc2cnccc2N2CCOCC2)cc1
IC50: 0.032 µM

CC(C)c1sc(Cl)nc1C(=O)NCCc1nc(C(=O)Nc2ccc3c(c2)OCO3)cs1
IC50: 7.9 µM

CC(=O)Nc1cccc(Nc2ncnc3nc[nH]c23)c1
IC50: > 100 µM (inactive)

O=C(Cc1ccccc1)Nc1[nH]nc2sc(C(=O)NC3CCCC3)cc12
IC50: 32 µM

CN(Cc1nnnn1C1CCN(Cc2ccc(-n3ccnc3)cc2)CC1)c1ccc(F)cc1F
IC50: 0.13 µM

CS(=O)(=O)NC1CCC(Nc2ncc(Br)c(Nc3ccccc3C(N)=O)n2)CC1 (centres undefined)
IC50: > 100 µM (inactive)

O=C(NCCc1csc(-c2cccc(F)c2)n1)c1ccco1
IC50: > 100 µM (inactive)

Cc1cnc(Nc2cc(Cc3ccccc3)nc(NC3CCC(O)CC3)n2)s1 (centres undefined)
IC50: > 100 µM (inactive)

Cc1[nH]n2c(=O)c3c(nc2c1-c1ccc(Br)cc1)CCCC3
IC50: > 100 µM (inactive)

COCCn1c(-c2ccccc2)cnc1NCc1ccccc1OC
IC50: 7.9 µM

COc1ccc(-c2cc(C)no2)cc1S(=O)(=O)Nc1ccc(F)c(Cl)c1
IC50: > 100 µM (inactive)

O=C1OCc2ccc(Nc3nccc(-c4cnn5ncccc45)n3)cc21
IC50: > 100 µM (inactive)

COc1ccc(S(=O)(=O)Nc2ccc(C(=O)Nc3nc(-c4ccccn4)cs3)cc2)cc1
IC50: 0.4 µM

CCCCNc1nccc(-c2c(-c3ccc(F)cc3)nn3c(N4CCOCC4)cccc23)n1
IC50: > 100 µM (inactive)

O=C(CN1CCC2(O)CCCCC2C1c1ccc2c(c1)OCO2)Nc1ccc(Cl)cc1Cl (centres undefined)
IC50: 13 µM

O=C(COc1ncnc2cc([N+](=O)[O-])ccc12)NC(=O)NC1CCCCC1
IC50: > 100 µM (inactive)

O=C(c1cc2cc(Cl)ccc2[nH]1)N1CCCCC1c1cccnc1 (centres undefined)
IC50: 0.063 µM

CN(CCOc1ccc(Cl)cc1)Cc1nc(N)nc(N(C)C)n1
IC50: 32 µM

O=c1oc2ccccc2n1C1CCN(Cc2ccccc2-c2cccnc2)CC1
IC50: 0.1 µM

OCCCNc1nc(Nc2ccncc2)nc2ccccc12
IC50: > 100 µM (inactive)

CC1CCCN(S(=O)(=O)c2ccc(C(=O)Nc3nc(-c4ccccn4)cs3)cc2)C1 (centres undefined)
IC50: 2.5 µM

O=C(NC1C(=O)N(c2ccccc2)C1c1cccnc1)c1ccc(Cl)s1 (centres undefined)
IC50: 0.2 µM

O=[N+]([O-])c1cccc(Nc2cncc(-c3ccccc3CO)c2)c1
IC50: 3.2 µM

Cc1ccc(-c2csc(NC(=O)C=Cc3ccc(S(=O)(=O)N4CCOCC4)cc3)n2)o1
IC50: 20 µM

CCOc1ccc2nc(NC(=O)c3ccc([N+](=O)[O-])s3)sc2c1
IC50: > 100 µM (inactive)

NS(=O)(=O)c1ccc(CNC(=O)c2ccc([N+](=O)[O-])s2)cc1
IC50: 40 µM

Oc1c(-c2n[nH]c(Cc3ccc(Cl)cc3)n2)ncc2cccnc12
IC50: 32 µM

O=C(Nc1nc(-c2ccccn2)cs1)c1ccc(S(=O)(=O)N2CCCCC2)cc1
IC50: 6.3 µM

COc1ccc(C(=O)[C@H]2C[C@@H]2CN(Cc2ccccn2)Cc2ccccn2)cc1
IC50: 40 µM

O=C(Cn1cnc2cc([N+](=O)[O-])ccc2c1=O)NCCc1ccc(Cl)cc1Cl
IC50: > 100 µM (inactive)

CC(C)c1cc(C(=O)N2CCCC(c3cc4ncccc4[nH]3)C2)on1 (centres undefined)
IC50: 50 µM

CN1CCC(N(C)c2nccc(N3CCN(C(=O)c4cccc(-c5cccnc5)c4)CC3)n2)CC1
IC50: 1.6 µM

CNC(=O)Oc1ccc(C(=O)NCc2ccccc2)cc1OC(=O)NC
IC50: > 100 µM (inactive)

N#Cc1cccc(CN2CCC(N(Cc3cccnc3)C(=O)c3cc(F)c(F)cc3F)CC2)c1
IC50: 0.05 µM

CC1CN(S(=O)(=O)c2ccc(NC(=O)c3cc(C4CC4)nc4c3cnn4C(C)C)cc2)CC(C)O1 (centres undefined)
IC50: > 100 µM (inactive)

O=C(NCc1nnc2n1CCCCC2)c1ccc(-c2ccc(F)cc2)o1
IC50: 79 µM

Cc1cc(=O)n2nc(Oc3ccc(C#N)cc3Cl)sc2n1
IC50: > 100 µM (inactive)

c1ccc(-c2nc(NC3CCCC3)c3ccccc3n2)nc1
IC50: > 100 µM (inactive)

O=C(C1CCCCC1)N1CCN(c2nnc(-c3ccccc3)c3ccccc23)CC1
IC50: > 100 µM (inactive)

Cc1ccccc1CNC(=O)CN(Cc1ccccn1)Cc1ccccn1
IC50: 100 µM

O=C(Nc1cccc(Cl)c1)Nc1ccc([N+](=O)[O-])cc1Cl
IC50: 5 µM

CC1(Oc2cncc(Cl)c2)CCN(Cc2cc3ccccc3[nH]2)C1 (centres undefined)
IC50: 10 µM

N#Cc1cccc(CNc2ccc(-c3cnn(CC4CC4)c(=O)c3C#N)cc2)c1
IC50: 6.3 µM

Cc1cc(Nc2cc(C3CC3)[nH]n2)nc(N2CCC[C@H]2C(N)=O)n1
IC50: > 100 µM (inactive)

CC(C)N(C(=O)CN1C(=O)C(N)C(=O)N(c2ccccc2)c2ccccc21)c1ccccc1 (centres undefined)
IC50: 0.32 µM

O=C(CN1CCN(c2ccccn2)CC1)Nc1cc(S(=O)(=O)N2CCCCCC2)ccc1Cl
IC50: 3.2 µM

O=c1cc(CSc2ccc(Cl)cc2)nc(-c2ccccn2)[nH]1
IC50: 63 µM

COCCn1cnc2cc(NC(=O)C3CCCCC3)cc(C(=O)N3CCc4sccc4C3)c21
IC50: 50 µM

NC(=O)c1ccccc1Nc1nc(NC2CCCCC2)nc2[nH]ccc12
IC50: > 100 µM (inactive)

Cc1cc(NC(=O)CC2CCCCC2)n(-c2nc3c(c(=O)[nH]2)CCC3)n1
IC50: > 100 µM (inactive)

Nc1nc(-c2ccccn2)nc(N)c1Cc1c(F)cccc1Cl
IC50: > 100 µM (inactive)

O=C(Nc1ccc(C(=O)N2CCCC2c2ccc3c(c2)OCCCO3)cc1)c1ccco1 (centres undefined)
IC50: 63 µM
